From patent publication US11999737B2, “Kinase inhibitors and related methods of use” (Duke University, priority 2014, dated 2024)

Target: T1, DYRK2 (Homo sapiens, UniProt Q92630)
T1 sequence (Q92630 1-601): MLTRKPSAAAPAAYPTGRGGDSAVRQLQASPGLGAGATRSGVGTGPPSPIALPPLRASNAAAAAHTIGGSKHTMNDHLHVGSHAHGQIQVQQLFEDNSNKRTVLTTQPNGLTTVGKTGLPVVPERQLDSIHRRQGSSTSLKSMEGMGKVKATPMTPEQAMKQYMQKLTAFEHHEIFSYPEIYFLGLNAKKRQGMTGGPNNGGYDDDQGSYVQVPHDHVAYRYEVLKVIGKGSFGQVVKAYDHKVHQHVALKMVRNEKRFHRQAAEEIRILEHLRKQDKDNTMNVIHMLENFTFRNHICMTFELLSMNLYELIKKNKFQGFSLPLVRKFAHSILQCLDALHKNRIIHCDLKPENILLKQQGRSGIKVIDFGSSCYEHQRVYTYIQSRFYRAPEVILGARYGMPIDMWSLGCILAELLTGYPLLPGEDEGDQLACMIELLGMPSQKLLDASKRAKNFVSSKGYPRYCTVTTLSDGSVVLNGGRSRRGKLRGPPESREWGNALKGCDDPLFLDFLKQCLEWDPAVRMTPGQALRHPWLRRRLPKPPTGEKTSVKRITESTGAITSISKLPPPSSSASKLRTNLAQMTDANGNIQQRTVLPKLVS
Assay: 33P-ATP filter-binding kinase assay

Q: With `CC(Sc1nc2c(cnn2-c2cccc(Cl)c2)c(=O)[nH]1)C(N)=O` (centres unmarked) [HS38] as the molecule, how does the IC50 (mean ± S.D., n = 2) read?
A: The IC50 was 1800 ± 600 nM.

Q: And the activity at 10 µM (read-out: % Activity (10 μM HS38))?
A: The activity at 10 µM was 21%.
